Test results reported in ChEMBL document CHEMBL3885881, “DrugMatrix”.

Species on record: Rattus norvegicus
Assay: DrugMatrix - Regimen: Daily Repeat
Type: toxicity, organism-based, Sprague-Dawley
Set-up: regimen Daily Repeat, gender Male, age 6-8 weeks
Settings: in vivo, po, 0 mg/kg, route oral GAVAGE, dose level Control, vehicle .5 % CMC; for ABSOLUTE BASOPHIL / ABSOLUTE EOSINOPHIL / ABSOLUTE LYMPHOCYTE / ABSOLUTE MONOCYTE / ABSOLUTE SEGMENTED NEUTROPHIL / BASOPHIL / EOSINOPHIL / ERYTHROCYTE COUNT / HEMATOCRIT / HEMOGLOBIN / LEUKOCYTE COUNT / LYMPHOCYTE / MEAN CORPUSCULAR HEMOGLOBIN / MEAN CORPUSCULAR HEMOGLOBIN CONCENTRATION / MEAN CORPUSCULAR VOLUME / MONOCYTE / NEUTROPHIL / NUCLEATED RED BLOOD CELLS / PLATELET COUNT: tissue Blood; for ALANINE AMINOTRANSFERASE / ALBUMIN / ALKALINE PHOSPHATASE / ASPARTATE AMINOTRANSFERASE / BLOOD UREA NITROGEN / CARBON DIOXIDE / CHLORIDE / CHOLESTEROL / CREATINE PHOSPHOKINASE / CREATININE / GLUCOSE / LACTATE DEHYDROGENASE / LIPASE / PHOSPHORUS / POTASSIUM / SODIUM / TOTAL BILIRUBIN / TOTAL PROTEIN / URIC ACID: tissue Plasma

C[C@]12CC[C@@H]3c4ccc(O)cc4CC[C@H]3[C@@H]1C[C@@H](O)[C@@H]2O [ESTRIOL]
ABSOLUTE BASOPHIL (72 h, time 3 day): 0 CELLS/uL
ABSOLUTE EOSINOPHIL (72 h, time 3 day): 171.33 CELLS/uL
ABSOLUTE LYMPHOCYTE (72 h, time 3 day): 13776.5 CELLS/uL
ABSOLUTE MONOCYTE (72 h, time 3 day): 180.83 CELLS/uL
ABSOLUTE SEGMENTED NEUTROPHIL (72 h, time 3 day): 1121.33 CELLS/uL
BASOPHIL (72 h, time 3 day): 0%
EOSINOPHIL (72 h, time 3 day): 1%
ERYTHROCYTE COUNT (72 h, time 3 day): 5.56 x10E6/uL
HEMATOCRIT (72 h, time 3 day): 34.75%
HEMOGLOBIN (72 h, time 3 day): 13.68 G/DL
LEUKOCYTE COUNT (72 h, time 3 day): 15.25 x10E3/uL
LYMPHOCYTE (72 h, time 3 day): 90.17%
MEAN CORPUSCULAR HEMOGLOBIN (72 h, time 3 day): 24.6 pg
MEAN CORPUSCULAR HEMOGLOBIN CONCENTRATION (72 h, time 3 day): 39.4 G/DL
MEAN CORPUSCULAR VOLUME (72 h, time 3 day): 62.48 fL
MONOCYTE (72 h, time 3 day): 1.17%
NEUTROPHIL (72 h, time 3 day): 7.67%
NUCLEATED RED BLOOD CELLS (72 h, time 3 day): 0 /100WBC
PLATELET COUNT (72 h, time 3 day): 1342 x10E3/uL
ALANINE AMINOTRANSFERASE (72 h, time 3 day): 49.67 u/L
ALBUMIN (72 h, time 3 day): 4.15 G/DL
ALKALINE PHOSPHATASE (72 h, time 3 day): 346.83 u/L
ASPARTATE AMINOTRANSFERASE (72 h, time 3 day): 108.17 u/L
BLOOD UREA NITROGEN (72 h, time 3 day): 17.33 mg/dL
CARBON DIOXIDE (72 h, time 3 day): 25 mmol/L
CHLORIDE (72 h, time 3 day): 100.83 MEQ/L
CHOLESTEROL (72 h, time 3 day): 66.83 mg/dL
CREATINE PHOSPHOKINASE (72 h, time 3 day): 788 u/L
CREATININE (72 h, time 3 day): 0.18 mg/dL
GLUCOSE (72 h, time 3 day): 151.67 mg/dL
LACTATE DEHYDROGENASE (72 h, time 3 day): 982.5 u/L
LIPASE (72 h, time 3 day): 10.33 u/L
PHOSPHORUS (72 h, time 3 day): 11.23 mg/dL
POTASSIUM (72 h, time 3 day): 6.37 MEQ/L
SODIUM (72 h, time 3 day): 141.02 MEQ/L
TOTAL BILIRUBIN (72 h, time 3 day): 0.18 mg/dL
TOTAL PROTEIN (72 h, time 3 day): 5.9 G/DL
URIC ACID (72 h, time 3 day): 1.8 mg/dL
ABSOLUTE BASOPHIL (120 h, time 5 day): 0 CELLS/uL
ABSOLUTE EOSINOPHIL (120 h, time 5 day): 69 CELLS/uL
ABSOLUTE LYMPHOCYTE (120 h, time 5 day): 13632.83 CELLS/uL
ABSOLUTE MONOCYTE (120 h, time 5 day): 139.83 CELLS/uL
ABSOLUTE SEGMENTED NEUTROPHIL (120 h, time 5 day): 1225 CELLS/uL
BASOPHIL (120 h, time 5 day): 0%
EOSINOPHIL (120 h, time 5 day): 0.33%
ERYTHROCYTE COUNT (120 h, time 5 day): 5.52 x10E6/uL
HEMATOCRIT (120 h, time 5 day): 33.98%
HEMOGLOBIN (120 h, time 5 day): 13.22 G/DL
LEUKOCYTE COUNT (120 h, time 5 day): 15.07 x10E3/uL
LYMPHOCYTE (120 h, time 5 day): 90.83%
MEAN CORPUSCULAR HEMOGLOBIN (120 h, time 5 day): 23.95 pg
MEAN CORPUSCULAR HEMOGLOBIN CONCENTRATION (120 h, time 5 day): 38.9 G/DL
MEAN CORPUSCULAR VOLUME (120 h, time 5 day): 61.53 fL
MONOCYTE (120 h, time 5 day): 0.83%
NEUTROPHIL (120 h, time 5 day): 8%
NUCLEATED RED BLOOD CELLS (120 h, time 5 day): 0 /100WBC
PLATELET COUNT (120 h, time 5 day): 1196 x10E3/uL
ALANINE AMINOTRANSFERASE (120 h, time 5 day): 49.17 u/L
ALBUMIN (120 h, time 5 day): 4.2 G/DL
ALKALINE PHOSPHATASE (120 h, time 5 day): 352.33 u/L
ASPARTATE AMINOTRANSFERASE (120 h, time 5 day): 89.67 u/L
BLOOD UREA NITROGEN (120 h, time 5 day): 18 mg/dL
CARBON DIOXIDE (120 h, time 5 day): 27.67 mmol/L
CHLORIDE (120 h, time 5 day): 101 MEQ/L
CHOLESTEROL (120 h, time 5 day): 72.83 mg/dL
CREATINE PHOSPHOKINASE (120 h, time 5 day): 417.5 u/L
CREATININE (120 h, time 5 day): 0.18 mg/dL
GLUCOSE (120 h, time 5 day): 150.5 mg/dL
LACTATE DEHYDROGENASE (120 h, time 5 day): 517.33 u/L
LIPASE (120 h, time 5 day): 9 u/L
PHOSPHORUS (120 h, time 5 day): 11.87 mg/dL
POTASSIUM (120 h, time 5 day): 6.57 MEQ/L
SODIUM (120 h, time 5 day): 143.62 MEQ/L
TOTAL BILIRUBIN (120 h, time 5 day): 0.2 mg/dL
TOTAL PROTEIN (120 h, time 5 day): 6.08 G/DL
URIC ACID (120 h, time 5 day): 1.45 mg/dL
